Molecules are shown by their SMILES.

Assay [1] relates to 3T3-L1 cells. The assay is described as follows: Evaluation of Insulin Sensitivity Using 3T3-L1 Cells (triglyceride accumulation). The conditions noted are these: Mus musculus, 96 h, insulin 10 ng/ml, 4 days, triglyceride increase by 10 μM pioglitazone taken as 100%, read-out: EC50 (dose necessary for a 50% increase of triglyceride). The assay is classed as cell-based. The procedure: Evaluation of Insulin Sensitivity Using 3T3-L1 Cells 3T3-L1 cells (purchased from American Type Culture Collection) which were in the n=x+3 passage were purchased and subcultured until the passage number reached n=x+8. The cells were frozen in liquid nitrogen, thawed and suboultured till n=x+11. 0.05% Trypsin-0.53 mM ethylenediaminetetraacetic acid (EDTA) was added and the cells were harvested. The cells were suspended in Dulbecco's modified Eagle's medium (DMEM) [5% fetal bovine serum (FBS), supplemented with 5.6 mM glucose], plated on a 24 well plate at a concentration of 0.5×10^5 cells/well and cultured. Two days later, the medium was changed to DMEM [5% FBS, supplemented with 5.6 mM glucose] containing 1 μM dexamethasone and 0.5 mM isobutylmethylxanthine and the incubation was continued for 2 more days. The test compounds were dissolved in dimethyl sulfoxide and diluted 1000-fold with DMEM [2% FBS, supplemented with 5.6 mM glucose] containing insulin (10 ng/ml) to make the final concentration thereof to 0 nM-10 μM, and added to the cells, which cells were incubated for 4 days. After incubation, isopropanol was added by 200 μl per well and the cells were ruptured by a probe type ultrasonicator. The triglyceride amount was determined using a triglyceride determination kit. The activity of the compounds was determined by calculating relative triglyceride increase achieved by each compound when that achieved by 10 μM pioglitazone was taken as 100%, and expressed by the dose (EC50) necessary for a 50% increase of triglyceride. The test compounds were those of Examples 1-3, 5, 8, 15, 16, 18, 19, 22 and 28 and Reference Example 1. As a control compound, used was a known compound of the following formula. The above test concerns whether or not the insulin sensitivity of 3T3-L1 cells is promoted. […] When insulin acts on 3T3-L1 cells, it not only takes up glucose but permits accumulation of triglyceride in the cells. Thus, after allowing insulin to act, the cells are ruptured and triglyceride is quantitatively determined, whereby the degree of the action of insulin and the degree of sensitivity can be known.

In assay [2] the test system is diabetic mice (KK-Ay). The experiment in a line: Evaluation of Serum Glucose of Diabetic Mice. Format: in vivo. The conditions noted are these: Mus musculus, 96 h; KK-Ay male mice, oral in diet, 4 days; read-out: Serum glucose ED50 (dose corresponding to a -50% change). Here is the method: Evaluation of Serum Glucose of Diabetic Mice
Genetically obese, hyperglycemic, hyperinsulinemic and hyperlipidemic diabetic mice (KK-Ay, male, Clea Japan, Inc., 8 weeks of age) were used for the pharmacological tests. Before the initiation of the drug administration, about 100 μl of blood was taken from orbital venosus under light ether anesthesia, and serum glucose was measured as described below. Based on the obtained value and body weight, the mice were grouped (6 per group) in such a manner that there existed no differences between the groups.
The test compounds were those of Examples 1 and 5 and Reference Example 1, as well as the above-mentioned control compound.
The test compounds were respectively dissolved in ethanol (three levels of concentrations per compound) and added to a powdered diet (CRF-1, ORIENTAL YEAST CO., LTD.). The diet was homogeneously mixed and ethanol was evaporated. The diet was given to the above-mentioned mice for 4 days, and the test compounds were orally administered (3 doses each). To a control group, CRF-1 powdered diet was given.
At day 4, blood samples (ca. 200 μl) were taken again in the same manner as above, and serum was separated (12,000 rpm, 5 min.) and used for the determination. Serum glucose was measured by hexokinase method (LYQUITECH glucose-HK-test; Boehlinger Marnheim Yamanouchi). Used for the determination was an automatic analyzer COBAS FARA II (Roche).
Changes in percentage of serum glucose of each group were calculated as follows from the values obtained at day 4 from the control group and the group administered with test compounds. [formula]
The changes in percentage of serum glucose was plotted on the axis of ordinates and the dose (mg/kg/day) of the test compound was plotted on the axis of abscissa (log), and the dose corresponding to a -50% change was read and taken as the ED50 of each test compound.

Take `COC(=O)C(Cc1ccc(OCCc2nc(-c3ccccc3)oc2C)cc1)C(=O)OC` [Reference Example 1, Dimethyl 2-[4-[2-(5-methyl-2-phenyl-4-oxazolyl)ethoxy]benzyl]malonate]: the EC50 in assay [1] was 0.00038 µM. In assay [2], the ED50 was determined as 0.17 mg/kg. On to `COC(=O)C(Cc1ccc(OCCc2nc(-c3ccccc3)oc2C)cc1)C(N)=O` (centres unmarked) [Example 2, Methyl 2-carbamoyl-3-[4-[2-(5-methyl-2-phenyl-4-oxazolyl)ethoxy]phenyl]propionate], for which the EC50 in assay [1] turned out to be 0.09 µM.

Turning to `COC(=O)CCc1ccc(OCCc2nc(-c3ccccc3)oc2C)cc1` [Example 16, Methyl 3-[4-[2-(5-methyl-2-phenyl-4-oxazolyl)ethoxy]phenyl]propionate], in assay [1], the EC50 turned out to be 0.053 µM. As to `Cc1oc(-c2ccccc2)nc1CCOc1ccc(CC(C(N)=O)C(=O)O)cc1` (centres unmarked) [Example 3, 2-Carbamoyl-3-[4-[2-(5-methyl-2-phenyl-4-oxazolyl)ethoxy]phenyl]propionic acid], the EC50 in assay [1] is 0.15 µM.

For `Cc1oc(-c2ccccc2)nc1CCOc1ccc(CC(C)(C(N)=O)C(=O)O)cc1` (centres unmarked) [Example 28, 2-Carbamoyl-2-methyl-3-[4-[2-(5-methyl-2-phenyl-4-oxazolyl)ethoxy]phenyl]propionic acid], the EC50 in assay [1] was 0.073 µM.

As to `Cc1oc(-c2ccccc2)nc1CCOc1ccc(CCC(N)=O)cc1` [Example 18, 3-[4-[2-(5-Methyl-2-phenyl-4-oxazolyl)ethoxy]phenyl]propionamide], in assay [1], the EC50 was 0.065 µM. As for `COC(=O)C(Cc1ccc(OCCc2nc(-c3ccccc3)oc2C)cc1)C(=O)O` (centres unmarked) [Example 1, 2-Methoxycarbonyl-3-[4-[2-(5-methyl-2-phenyl-4-oxazolyl)ethoxy]phenyl]propionic acid], the EC50 in assay [1] came to 0.00045 µM. Also, in assay [2], the ED50 came to 0.12 mg/kg. Take `COC(=O)NC(=O)C(Cc1ccc(OCCc2nc(-c3ccccc3)oc2C)cc1)C(=O)OC` (centres unmarked) [Example 8, Methyl 2-methoxycarbonylcarbamoyl-3-[4-[2-(5-methyl-2-phenyl-4-oxazolyl)ethoxy]phenyl]propionate]: the EC50 in assay [1] came to 0.007 µM. For `COC(=O)NC(=O)CCc1ccc(OCCc2nc(-c3ccccc3)oc2C)cc1` [Example 19, Methyl N-[3-[4-[2-(5-methyl-2-phenyl-4-oxazolyl)ethoxy]phenyl]propionyl]carbamide], in assay [1], the EC50 is 0.09 µM. For `CCc1ccc(CCOc2ccc(CC3SC(=O)NC3=O)cc2)nc1` (centres unmarked) [Control compound, reference compound], the EC50 in assay [1] worked out at 0.18 µM. Moreover, in assay [2], the ED50 worked out at 10.6 mg/kg. On to `Cc1oc(-c2ccccc2)nc1CCOc1ccc(CC(C(=O)O)C(=O)O)cc1` [Example 5, 2-[4-[2-(5-Methyl-2-phenyl-4-oxazolyl)ethoxy]benzyl]malonic acid], for which the EC50 in assay [1] came out at 0.0072 µM. For the same compound, the ED50 in assay [2] stood at 2.7 mg/kg.

Consider `CSC(=O)NC(=O)CCc1ccc(OCCc2nc(-c3ccccc3)oc2C)cc1` [Example 22], for which the EC50 in assay [1] amounted to 0.09 µM. The same measure, in the same setting: to `Cc1oc(-c2cc3ccccc3s2)nc1CCOc1ccc(CCC(=O)NC(N)=O)cc1` [Example 15, N-[3-[4-[2-(2-(Benzothiophen-2-yl)-5-methyl-4-oxazolyl)ethoxy]phenyl]propionyl]urea] belongs 0.09 µM.

The values above are taken from US6204277A, “Propionic acid derivatives and applications thereof” (Japan Tobacco Inc., priority 1996, dated 2001).
